This note sets out measurements from patent US11260050B2, “Combination of cotinine plus antioxidant for treatment-resistant depression and correction of astrocytes functional deficit induced by depression and other neuropathological” (UNIVERSIDAD SAN SEBASTIAN, priority 2017, dated 2022).

For test [1], the system named is mice subjected to fear conditioning. Briefly: Elevated plus maze after fear conditioning (Example 1, Experiment 3). Format: in vivo, C57BL/6 mice. The following applies: FC mice, IN post-treatment; Veh 68.14±5.573, N=5. The method, then:
(§1) Mice were treated via IN 2 hours after fear conditioning and continuously until euthanasia.
(§2) Mice (n=5-6/condition) received daily treatments with 1. PBS (phosphate buffer saline, pH 7.4) via intranasal (2×12 μl/nostril), 2. Cotinine dissolved in PBS via intranasal (Cot IN, 10 mg/ml, 2×12 μl/nostril); 3. Cotinine+krill oil both dissolved in PBS via intranasal (Cot IN, 10 mg/ml+KO, 48 mg/ml, 2×12 μl/nostril).
Contextual FC was performed as described. The conditioning chamber used is surrounded by a sound-attenuating box with a camera connected to freeze frame software (MED Associates Inc.), also equipped to provide a background white noise (72 dB). The conditioning chamber (33 cm×20 cm×22 cm) contains in one side a speaker and in the opposite slide has a 24V light. The chamber has a 36-bar insulated shock grid floor. Mice were placed in the conditioning chamber for 2 min before the onset of a discrete tone (a sound that will last 30 seconds (sec) at 2,800 Hz and 85 dB). In the last two seconds of this tone, mice received a foot shock of 1 mA and kept in the conditioning chamber for 2 min and then returned to their cages. Between trials, the chamber was sanitized with 70% ethanol and dried. Freezing behavior that is defined as the absence of all movement except the one needed for breathing was assessed using the FreezeView Software (MED Associates Inc.). […]

Test [2] shares this test system. The experiment in a line: Novel object recognition after fear conditioning (Example 1, Experiment 3). It counts as in vivo, C57BL/6 mice. The following applies: FC mice, IN post-treatment. The protocol: as §1, §2
Contextual FC was performed as described. The conditioning chamber used is surrounded by a sound-attenuating box with a camera connected to freeze frame software (MED Associates Inc.), also equipped to provide a background white noise (72 dB). The conditioning chamber (33 cm×20 cm×22 cm) contains in one side a speaker and in the opposite slide has a 24V light. The chamber has a 36-bar insulated shock grid floor. […] Freezing behavior that is defined as the absence of all movement except the one needed for breathing was assessed using the FreezeView Software (MED Associates Inc.).
After a habituation step in the OF arena, each mouse was individually placed in the apparatus containing two identical objects located equidistant to each other (familiarization phase) and left to explore the objects for 5 min. […] The time exploring the two objects was recorded during 5 min. […]

For test [3] the test system is unchanged. Briefly: Contextual fear retention and extinction (Example 1, Experiment 3). Format: in vivo, C57BL/6 mice. From the text:
Between trials, the chamber was sanitized with 70% ethanol and dried.

The test system of another test is GFAP. Briefly: GFAP immunofluorescence, morphometric analysis and cell counting in the dentate gyrus (Example 3). Format: in vivo, C57BL/6J mice. The following applies: restrained mice, oral co-treatment; vs vehicle-treated restrained mice.
In the next test the test system is restrained mice. The experiment in a line: Novel object recognition after chronic restraint stress (Example 2). Format: in vivo, C57BL/6 male mice. The note with it: stressed mice, IN cotinine vs vehicle. The method, then:
Mice between 2-3 months of age after one week of acclimatization were randomly divided into two groups. Stressed mice were subjected to restraint stress. Control (non-restrained) mice were allowed to move freely during this period. After the stress exposure period, mice were divided into three experimental groups: 1) Non-restrained mice treated with vehicle (PBS, pH 7.4) serving as unstressed controls (n=8); 2) Restrained mice (RS) treated with vehicle (n=8); 3), RS mice treated with 24 μl of a cotinine solution (10 mg/ml in PBS, pH 7.4) via intranasal route of administration (n=6). Treatments were administered daily until euthanasia. After two weeks of treatments mice were behaviorally tested and euthanized (FIG. 10)
Intranasal delivery was performed as previously described (Hanson and Frey, 2007). Mice at 2-3 months of age were hand-restrained, positioned in a supine position, and administered two 12 μl drops of cotinine solution (10 mg/ml in PBS), or PBS alone, into both nares. Mice were given an extra 12 μl treatment drop if the mouse expelled out the solution. Mice were kept in the supine posture for 5 seconds after delivery to facilitate the delivery. […]
The NOR test starts with a habituation step that consists in putting each mouse to freely explore an open and empty testing arena (40 cm×40 cm×35 cm) for 10 min. […] The time exploring the objects was recorded during 5 min in both steps. […]

Procedure for GFAP: Mice after acclimatization and one week of handling were randomly divided into five groups (n=8/condition) and orally treated as follow: 1) control non-restrained mice treated with vehicle (PBS, pH 7.4); 2) restrained mice treated with vehicle; 3), restrained mice treated with a cotinine solution (5 mg/kg in PBS, pH 7.4) via gavage; 4) restrained mice treated with KO (143 mg/kg); 5) restrained mice treated with cotinine plus KO solution. Mice were started with treatments, the first day of restraint and continuously until euthanasia. Treatments were administered at the same time of the day, 30 min before restraint.
For the immunohistochemistry (IHC) and fluorescent IHC (F-IHC) analysis the right hemisphere of each mouse brain was placed in 4% paraformaldehyde in PBS pH 7.4 at 4° C. for 24 h. The tissues were embedded in 2% agarose molds for vibratome sectioning.
For the F-IHC, samples were washes 3 times for 7 min with Tris-buffered saline (TBS), pH 7.8. The primary antibody anti-GFAP (1:50, BioSB) was diluted in diluent buffer, containing TBS supplemented with 1% bovine serum albumin (BSA) and 0.2% Triton X-100, and incubated with the tissue sections overnight (ON) at 4° C. […] The samples were counterstained with Hoechst (1:1000) and mounted with fluorescence mounting medium (Prolong, Invitrogen). […]
In each image, a region of interest (ROI) that represented the dentate gyrus was determined using free-hand drawing. For each ROI, the mean gray values (MGV), representing the area fraction with immunoreactivity for GFAP, were measured. To measure the fluorescence intensity of GFAP immunostaining in the dentate gyrus, maximum intensity projections of confocal z-stacks acquired from sagittal brain sections were converted into 8-bit greyscale images with 256 scales (pixel intensity 0 corresponding to no signal and 255 to maximal signal) by ImageJ software. […] For the GFAP+ cell counting, cell to be counted must had at least half of the cell nucleus visible on the edge of the ROI and cells were not included in the analysis if they were adherent to blood vessel walls.

In the case of `CN1C(=O)CC[C@H]1c1cccnc1` [Cotinine, (5S)-1-methyl-5-(3-pyridyl) pyrrolidin-2-one], the “time spent in the open arms (EPM)” value in test [1] is given as “increase in the time spent in the open arms but the difference did not reached significance”. For the same compound, the “number of entries to the new object area (NOR)” value in test [2] (Cotinine p<0.05, Cotinine+KO p<0.01) was “higher number of entries to the new object area than PBS-treated FC mice”. Moreover, the “time exploring the new object (NOR)” value in test [2] (both p<0.05) was “spent more time than PBS-treated FC mice”. The “freezing in the contextual retention test (consolidation of fear memory)” value in test [3] (IN treatment started 2 h after FC, test 24 h after FC) was “levels of freezing similar to control mice”. In addition, the “freezing behavior during contextual fear extinction trials” value in test [3] (daily IN treatment, daily 3 min re-exposure) was “significant enhancement of memory extinction on day 2 and 3”. Further, the “day of maximal decrease in freezing during extinction” value in test [3] (daily IN treatment, control mice day 5) was determined as 3 days. In the test on GFAP, the “mean gray value (GFAP IR intensity) in the dentate gyrus” value is given as “significant increase of the IR intensity”, the “number of GFAP+ cells (cell density) in the dentate gyrus” value was “significant increase of cell density” and the “percent area fraction occupied by GFAP+ cells in the dentate gyrus” value is “significant increase in the GFAP+ fraction area”. In addition, the “exploration index for the new object (NOR)” value in the test with restrained mice is listed as “increase in the exploration index when compared to vehicle-treated stressed mice but the difference did not reach statistical significance”. Further, the “number of entries to the novel object area (NOR)” value in the test with restrained mice (p<0.05) is recorded as “significantly higher number of entries to the novel object area”.
